Assay results from patent US12298308B2, “Neoadjuvant chemotherapy induces breast cancer metastasis through a TMEM-mediated mechanism” (Albert Einstein College of Medicine, priority 2017, dated 2025).

Columns and labels:
MDA-MB-213 xenografts = details: paclitaxel-treated vs control MDA-MB-213 xenografts; cited from earlier work
Mena^INV = Mena^INV expression before and after NAC or paclitaxel in breast cancer patients; assay type: in vivo, human; details: qRT-PCR in FNA biopsies before and one week after second dose of weekly paclitaxel; n=5
Description: To further substantiate the translational importance of our preclinical data from PyMT and PDX mice receiving neoadjuvant paclitaxel into human breast cancer patients, we compared Mena^INV expression levels in Pre- and Post-NAC samples. […] Additionally, we analyzed Mena^INV expression by qRT-PCR in fine needle aspiration (FNA) biopsies taken before and one week after the second dose of weekly paclitaxel in an independent small cohort of patients (n=5).
Immunofluorescence. Slides were deparaffinized by melting at 60° C. in an oven equipped with a fan for 20 minutes, followed by 2× xylene treatment for 20 minutes. Slides were rehydrated and antigen retrieval was done in 1 mM EDTA (pH 8.0) or 1× citrate buffer (pH 6.0) (Diagnostic BioSystems) at 97° C. for 20 minutes in a conventional steamer. Endogenous peroxidase was blocked by using 0.3% hydrogen peroxide in water, followed by incubation of slides in a blocking buffer solution (10% FBS, 1% BSA, 0.0025% fish skin gelatin in 0.05% PBST) for 60 minutes at room temperature. […]

[1] = tested on: Tie2^hi/Vegf^hi macrophages; assay: Macrophage infiltration by multi-channel immunofluorescence (Iba1, Cd31, Tie2, Vegf); assay type: in vivo, mouse
Description: The functional TMEM sites contain Tie2^hi/Vegf^hi macrophages and invasive tumor cells in perivascular regions (1), and it was independently shown that chemotherapy may promote mobilization of such Tie2^hi monocyte progenitors in primary tumors (8, 10). The Tie2^hi/Vegf^hi macrophage subpopulation was quantified herein using multi-channel immunofluorescence (IF) imaging (FIGS. 1D-F) (10, 14, 34). FIG. 1E illustrates a representative IF image of a Tie2^hi/Vegf^hi macrophage quantified using Cd31, Iba1, Vegf and Tie2 staining.
Drug Administration. The following drugs were administered in mice: Paclitaxel was given at 10 mg/Kg i.v every 5 days for 2 weeks; Doxorubicin was given at 5 mg/Kg i.v. every 5 days for 2 weeks; Cyclophosphamide was given at 120 mg/Kg i.p. only once; Rebastinib was given at 10 mg/Kg per os, every 3-4 days for 4 weeks.
Animals and Animal Procedures. MMTV-PyMT mice were bred in-house at the Albert Einstein College of Medicine (AECOM). Generation of MMTV-PyMT Mena^−/− has been described previously (28). CFP- or Dendra2-labeled mammary carcinoma cells were generated on the FVB background by co-injection of Tg(MMTV-iCRE)1jwp together with Tg(PCAG-loxp-CATstop-loxp-CFP) or Tg(loxP-stop-loxP-PDendra2)jwp plasmids, respectively, by conventional methods in the Albert Einstein Transgenic Mouse Facility. All syngeneic transplantation models were generated through orthotopic transplantation of 1 mm×1 mm tumor chunks, using tumors of 1 cm-diameter from 12-16-week old MMTV-PyMT mena−/− or mena+/+ donor mice into 5-6 week-old FVB recipients. Tumor chunks were implanted on the fourth mammary pad on the left side. The generation of the ER^− HT17 and ER^+ HT33 patient-derived xenografts has been described previously (31). Animal handling and associated procedures were approved by the Institutional Animal Care and Use Committee (IACUC). Additional information is detailed in Supplementary Methods.
Immunofluorescence. Slides were deparaffinized by melting at 60° C. in an oven equipped with a fan for 20 minutes, followed by 2× xylene treatment for 20 minutes. Slides were rehydrated and antigen retrieval was done in 1 mM EDTA (pH 8.0) or 1× citrate buffer (pH 6.0) (Diagnostic BioSystems) at 97° C. for 20 minutes in a conventional steamer. Endogenous peroxidase was blocked by using 0.3% hydrogen peroxide in water, followed by incubation of slides in a blocking buffer solution (10% FBS, 1% BSA, 0.0025% fish skin gelatin in 0.05% PBST) for 60 minutes at room temperature. The following primary antibodies were used in different combinations, depending on the experiment: chicken anti-Mena^INV (0.25 ug/mL, generated in-house in the lab of John S. Condeelis), rabbit anti-Cd31 (1:400; 77699s; Cell Signaling), rabbit anti-Vegf (1:2,000; Rb 9031-PO-A; Thermo), rat anti-Tie2 (1:100; 16-5987-82; eBioscience), rabbit anti-Iba1 (1:6,000; 019-19741; Wako), rat anti-endomucin (1:500; sc-65495; Santa Cruz), rabbit anti-TMR (1:1,000; A-6397; Life Technologies). Secondary antibody treatment was performed using HRP-conjugated antibodies, and was followed by tyramide signal amplification (TSA), using the Perkin Elmer; Opal™ 4-color Fluorescent IHC kit, according to the manufacturer's directions. All slides were imaged on the Pannoramic 250 Flash II digital whole slide scanner, using a 20×0.75NA objective lens. Image analysis was performed in ImageJ, detailed in Supplementary Methods.

Mena = Mena isoform gene expression by qRT-PCR on FFPE tumors; assay type: in vivo, mouse
Description: To test this hypothesis, qRT-PCR analysis was first performed for total Mena (panMena), Mena11a and Mena^INV on formalin-fixed paraffin-embedded (FFPE) tumors from all mouse models. […] As shown in the specific Mena^INV IF, the pattern of Mena^INV expression in PyMT mice was heterogeneous (FIG. 4F), consistent with previous observations (40). […] In addition, there was an inverse correlation for the anti-metastatic Mena11a (p<0.01, […]).
Gene Expression Analysis. Total RNA was extracted from formalin-fixed paraffin-embedded (FFPE) tissues using deparaffinization solution (Qiagen) and RNeasy FFPE Kit (Qiagen), followed by DNase treatment. An RT-PCR method SYBR Green (Qiagen) was used to measure expression levels of total Mena (PanMena), as well as of the specific Mena isoforms, Mena11a and Mena^INV, as described (29), with slight modifications, as detailed in Supplementary Methods. Mena^Calc expression has been previously defined as the expression level of all Mena isoforms combined after subtraction of Mena 11a from PanMena (2).

lung metastases = assay: Lung metastasis and single cancer cell dissemination in lungs; assay type: in vivo, mouse
Description: To further determine the effect of paclitaxel on cancer cell dissemination to distant sites, we harvested lungs and evaluated metastatic foci histologically. An increase was found in both the metastatic incidence (>1 micrometastatic focus of >5 tumor cells) (FIG. 3H) and the number of cancer cell micrometastases in the lungs of paclitaxel-treated mice (FIG. 3I). In addition, we quantified single cell dissemination of breast cancer cells in the lungs of FVB-recipient mice after syngeneic transplantation of MMTV-PyMT/Dendra2^+ tumors using ex vivo microscopy, and found an approximately 2-fold increase (p<0.01) of single Dendra2^+ breast cancer cells in the lungs of paclitaxel-treated mice (FIG. 3J). Overall, data presented in this section indicate that in early-stage breast cancers chemotherapy increases vascular permeability at TMEM sites which is accompanied by increased cancer cell dissemination.
Histology and TMEM Immunohistochemistry.

[2] = Mena^-/- PyMT-CFP transplanted tumors

For CC(=O)O[C@H]1C(=O)[C@@]2(C)[C@H]([C@H](OC(=O)c3ccccc3)[C@]3(O)C[C@H](OC(=O)[C@H](O)[C@@H](NC(=O)c4ccccc4)c4ccccc4)C(C)=C1C3(C)C)[C@]1(OC(C)=O)CO[C@@H]1C[C@@H]2O [paclitaxel], which Mena expression (MDA-MB-213 xenografts) is on record?
Its Mena expression is “significantly increased”.

And the “Mena^INV expression” value (MDA-MB-213 xenografts)?
Its value is “significantly increased”.

What about the “patients with increase of Mena^INV gene-expression” value (Mena^INV) of the same molecule?
Its value is 4/5.

And the “absolute number of Iba1^+ cells” value ([1]; HT17-xenograft, entire tissue or perivascular niche, p<0.001)?
The value was “significantly increased”.

And the “perivascular Iba1^+ macrophage infiltration” value [1, 2]?
The value was “increased”.

And the “perivascular Tie2^hi/Vegf^hi Iba1^+ macrophage infiltration” value [1, 2]?
Its value is “increased”.

And the “perivascular Tie2^hi/Vegf^hi macrophage subpopulation” value ([1]; PyMT-spontaneous model)?
The value was “significant increase”.

What about the “percentage of macrophage-specific Iba1^+ area” value ([1]; all transplantation models, p<0.01) of the same molecule?
The value was “significant increase”.

And the “proportion of Tie2^hi/Vegf^hi macrophages among all Iba1^+ cells” value ([1]; paclitaxel treatment)?
The value was “increased”.

And the “density of perivascular Tie2^hi/Vegf^hi macrophages” value ([1]; single agent vs vehicle, PyMT-transplantation and HT17 xenograft)?
The value was “significant increases”.

And the “density of Tie2^hi/Vegf^hi macrophages” value ([1]; vs vehicle-treated controls, entire tissue or perivascular niches, p<0.001)?
The value was “significantly higher”.

What about the “expression of Mena11a” value (Mena) of the same molecule?
Its value is “not that of the anti-metastatic Mena11a”.

And the “expression of Mena^Calc” value (Mena; p<0.01)?
The value was “significantly increased”.

What about the “expression of Mena^INV” value (Mena; p<0.01) of the same molecule?
The value was “significantly increased”.

And the “expression of PanMena” value (Mena; p<0.01)?
The value was “significantly increased”.

And the “increase of single Dendra2^+ breast cancer cells in the lungs” value (lung metastases; FVB recipients of MMTV-PyMT/Dendra2^+ tumors, ex vivo microscopy, p<0.01)?
Its value is “approximately 2 fold”.

And the “disseminated cells in the lungs” value (lung metastases; Mena^-/- PyMT-CFP transplants)?
The value was “failed to boost”.

What about the “metastatic incidence (>1 micrometastatic focus of >5 tumor cells) in lungs” value (lung metastases; histological evaluation) of the same molecule?
The value was “increase”.

And the “number of cancer cell micrometastases in the lungs” value (lung metastases; histological evaluation)?
The value was “increase”.
